Molecules are shown by their SMILES.

This experiment concerns the target T1, IKKβ (Homo sapiens, UniProt O14920).
T1 sequence (O14920 1-756): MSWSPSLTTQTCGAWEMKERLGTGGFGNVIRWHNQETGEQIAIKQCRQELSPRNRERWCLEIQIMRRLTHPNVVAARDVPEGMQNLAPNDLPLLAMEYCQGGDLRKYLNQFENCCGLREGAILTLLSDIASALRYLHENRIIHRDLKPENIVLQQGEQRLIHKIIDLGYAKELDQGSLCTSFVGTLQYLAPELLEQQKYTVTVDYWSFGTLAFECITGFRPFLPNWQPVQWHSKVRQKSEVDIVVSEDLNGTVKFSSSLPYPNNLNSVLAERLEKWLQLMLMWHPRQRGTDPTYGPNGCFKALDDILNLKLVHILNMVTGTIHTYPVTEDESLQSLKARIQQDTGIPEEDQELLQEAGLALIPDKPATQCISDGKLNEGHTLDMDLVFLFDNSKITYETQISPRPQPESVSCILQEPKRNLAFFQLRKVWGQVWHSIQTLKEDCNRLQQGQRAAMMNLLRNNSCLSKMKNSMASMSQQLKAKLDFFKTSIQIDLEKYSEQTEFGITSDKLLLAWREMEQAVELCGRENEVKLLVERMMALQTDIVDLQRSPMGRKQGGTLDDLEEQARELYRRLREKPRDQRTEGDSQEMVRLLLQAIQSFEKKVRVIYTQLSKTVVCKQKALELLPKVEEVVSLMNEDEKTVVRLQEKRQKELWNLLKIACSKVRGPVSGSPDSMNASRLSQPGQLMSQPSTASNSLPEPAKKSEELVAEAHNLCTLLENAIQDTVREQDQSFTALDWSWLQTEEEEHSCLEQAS
The experiment in a line: SPR. The format is binding.

A word on the Kd: it is the concentration at which binding is half-saturated. The low end stands for higher affinity, the high end for lower affinity. Consider `CC(C)C1=CC2=CC[C@@H]3[C@](C)(CCC[C@@]3(C)C(=O)O)[C@H]2CC1` [AA, Abietic acid], for which the Kd stood at 32 µM.
